Drawing on article PMC7026418, “The kinase polypharmacology landscape of clinical PARP inhibitors” (Scientific Reports, 2020), this text covers percent of control binding for 4 molecules.

Where two headings read alike, the source gives them in different places.

What all share (assay): biochemical
What all share (set-up): DiscoveRx KINOMEscan active site-directed competition binding; percent of control kinase bound to immobilised ligand

For test [1], the target named is T1, ABL1(M351T)-phosphorylated (Homo sapiens, UniProt P00519, M351T).
T1 construct: phosphorylated

In another test the target is T2, MST2 (Homo sapiens, UniProt Q13188).
T2 construct: gene STK3
T2 sequence (Q13188 1-491): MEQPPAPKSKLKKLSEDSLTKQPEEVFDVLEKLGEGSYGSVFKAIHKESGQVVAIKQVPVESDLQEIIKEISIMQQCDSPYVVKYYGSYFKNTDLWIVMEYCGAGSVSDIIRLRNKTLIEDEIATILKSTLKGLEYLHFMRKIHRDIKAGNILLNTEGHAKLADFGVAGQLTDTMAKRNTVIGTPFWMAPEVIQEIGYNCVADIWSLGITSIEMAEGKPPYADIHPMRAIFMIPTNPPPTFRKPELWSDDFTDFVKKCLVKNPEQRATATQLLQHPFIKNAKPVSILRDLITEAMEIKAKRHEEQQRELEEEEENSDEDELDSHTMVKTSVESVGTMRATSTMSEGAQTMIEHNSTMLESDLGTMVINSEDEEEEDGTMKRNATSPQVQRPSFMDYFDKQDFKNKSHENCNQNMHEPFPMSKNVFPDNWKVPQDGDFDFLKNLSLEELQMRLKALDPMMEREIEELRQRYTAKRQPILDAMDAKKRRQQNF

In the next test the target is FGR (Homo sapiens, UniProt P09769).
The target of the next test is T3, GAK (Homo sapiens, UniProt O14976).
T3 sequence (O14976 1-1311): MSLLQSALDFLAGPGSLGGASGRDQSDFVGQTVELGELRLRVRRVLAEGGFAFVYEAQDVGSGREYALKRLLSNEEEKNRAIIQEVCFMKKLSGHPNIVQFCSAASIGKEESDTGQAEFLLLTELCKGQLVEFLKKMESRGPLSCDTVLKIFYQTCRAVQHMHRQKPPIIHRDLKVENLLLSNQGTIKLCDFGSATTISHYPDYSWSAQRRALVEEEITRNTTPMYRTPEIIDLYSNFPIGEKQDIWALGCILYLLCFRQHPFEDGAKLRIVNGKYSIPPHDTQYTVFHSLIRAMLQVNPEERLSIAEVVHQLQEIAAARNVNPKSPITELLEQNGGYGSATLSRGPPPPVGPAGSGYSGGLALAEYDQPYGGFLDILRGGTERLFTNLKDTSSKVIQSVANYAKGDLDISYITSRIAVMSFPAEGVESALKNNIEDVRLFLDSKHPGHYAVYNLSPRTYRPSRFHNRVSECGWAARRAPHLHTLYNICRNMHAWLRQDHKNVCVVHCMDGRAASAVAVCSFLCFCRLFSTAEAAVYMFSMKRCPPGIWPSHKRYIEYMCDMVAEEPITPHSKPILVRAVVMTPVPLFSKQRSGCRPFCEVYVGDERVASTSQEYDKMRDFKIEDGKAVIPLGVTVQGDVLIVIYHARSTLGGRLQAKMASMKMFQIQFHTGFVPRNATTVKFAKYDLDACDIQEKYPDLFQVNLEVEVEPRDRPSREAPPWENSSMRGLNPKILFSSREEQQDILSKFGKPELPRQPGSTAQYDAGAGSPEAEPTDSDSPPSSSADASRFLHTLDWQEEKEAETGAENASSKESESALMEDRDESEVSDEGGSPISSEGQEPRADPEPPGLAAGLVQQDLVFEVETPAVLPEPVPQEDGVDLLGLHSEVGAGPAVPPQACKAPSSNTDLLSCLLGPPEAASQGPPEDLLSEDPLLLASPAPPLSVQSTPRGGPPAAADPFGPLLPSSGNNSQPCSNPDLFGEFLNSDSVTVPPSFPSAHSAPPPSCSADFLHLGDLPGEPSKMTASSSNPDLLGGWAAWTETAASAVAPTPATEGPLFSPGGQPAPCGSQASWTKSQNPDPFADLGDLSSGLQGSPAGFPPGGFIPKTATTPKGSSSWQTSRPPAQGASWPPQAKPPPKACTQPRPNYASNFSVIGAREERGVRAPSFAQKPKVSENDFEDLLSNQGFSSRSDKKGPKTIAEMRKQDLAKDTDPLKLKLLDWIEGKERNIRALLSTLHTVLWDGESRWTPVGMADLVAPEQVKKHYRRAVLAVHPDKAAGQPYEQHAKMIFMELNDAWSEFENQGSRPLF

Setting [2] is: read-out: Rucaparib / %Ctrl @ 10000nM, binding competition, % of control.
Setting [3] is: read-out: Talazoparib (BMN 673) / %Ctrl @ 10000nM.
[4] abbreviates: read-out: Niraparib (MK-4827) / %Ctrl @ 10000nM.
The mark [5] stands for this setting: read-out: Olaparib / %Ctrl @ 10000nM.

FGR, sequence (P09769 whole entry): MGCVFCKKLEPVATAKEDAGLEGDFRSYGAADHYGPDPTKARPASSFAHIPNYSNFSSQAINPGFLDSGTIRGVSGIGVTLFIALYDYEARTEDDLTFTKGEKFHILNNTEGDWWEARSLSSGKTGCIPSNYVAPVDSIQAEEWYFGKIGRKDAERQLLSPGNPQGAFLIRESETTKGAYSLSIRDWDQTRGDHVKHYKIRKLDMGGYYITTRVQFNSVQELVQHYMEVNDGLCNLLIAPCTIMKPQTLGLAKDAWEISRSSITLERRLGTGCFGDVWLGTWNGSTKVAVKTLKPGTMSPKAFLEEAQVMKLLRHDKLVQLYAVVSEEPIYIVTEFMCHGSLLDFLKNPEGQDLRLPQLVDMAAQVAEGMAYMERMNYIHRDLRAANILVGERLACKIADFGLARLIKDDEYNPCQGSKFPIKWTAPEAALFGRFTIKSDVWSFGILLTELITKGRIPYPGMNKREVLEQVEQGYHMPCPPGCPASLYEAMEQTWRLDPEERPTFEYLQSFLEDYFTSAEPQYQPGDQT

Consider `CNCc1ccc(-c2[nH]c3cc(F)cc4c3c2CCNC4=O)cc1` [Rucaparib], for which the percent of control binding at 10 µM stood at 75% in test [1] (setting [2]), 76% at MST2 (setting [2]), 96% on FGR (setting [2]) and 35% on GAK (setting [2]).
For the molecule `Cn1ncnc1[C@H]1c2n[nH]c(=O)c3cc(F)cc(c23)N[C@@H]1c1ccc(F)cc1` [Talazoparib], the percent of control binding at 10 µM in test [1] (setting [3]) was 98%; at MST2 (setting [3]), 100%; at FGR (setting [3]) it was 99%; at GAK (setting [3]), 100%.
For the molecule `NC(=O)c1cccc2cn(-c3ccc([C@@H]4CCCNC4)cc3)nc12` [Niraparib], the percent of control binding at 10 µM in test [1] (setting [4]) turned out to be 100%; on MST2 (setting [4]), 100%; at FGR (setting [4]), 85%; on GAK (setting [4]), 58%.
Regarding `O=C(c1cc(Cc2n[nH]c(=O)c3ccccc23)ccc1F)N1CCN(C(=O)C2CC2)CC1` [Olaparib], the percent of control binding at 10 µM was determined as 91% in test [1] (setting [5]), 96% on MST2 (setting [5]), 92% on FGR (setting [5]) and 100% at GAK (setting [5]).
